In one experiment the test system is P. aeruginosa biofilms. Briefly: Biofilm growth assay (spreading biofilm on semi-solid agar), P. aeruginosa. Particulars: biofilm growth assay, overnight 37° C., vs negative controls, Tables 1-5; for IC85: Pseudomonas aeruginosa, read-out: P. aeruginosa: concentration that reduces the area of the spreading biofilm by greater than or equal to 85%. Type of experiment: cell-based. Summed up:
(§1)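 Compound added to semi-solid agar: M8 with 0.2% glucose, 100 μM CaCl2, 1 mM MgSO4, 0.5% Casamino acids (P. aeruginosa) or LB with 0.6% agar, 0.5% glucose (E. coli). Center-inoculated with 5 μL overnight culture, incubated overnight at 37 °C; value is concentration (μg/ml) reducing spreading area ≥85% versus negative controls.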

A further experiment concerns E. coli biofilms. Put plainly: Biofilm growth assay (spreading biofilm on semi-solid agar), E. coli. It is filed as cell-based. Particulars: biofilm growth assay, overnight 37° C., vs negative controls, Tables 1-5; for IC85: Escherichia coli, read-out: E. coli: concentration that reduces the area of the spreading biofilm by greater than or equal to 85%. Summed up:
as §1

Values after ≈ are worked out from the molar mass of the structure shown.

For `CN1CCN(c2c([C@]34CCC(C)(C)CC3C3=CCC5[C@@]6(C)Cc7c(n[nH]c7N)C(C)(C)C6CC[C@@]5(C)[C@]3(C)CC4)n[nH]c2O)CC1` (stereo partly drawn) [Compound 89, 3-((4aS,6aS,6bR,13aR)-12-Amino-2,2,6a,6b,9,9,13a-heptamethyl-2,3,4,4a,5,6,6a,6b,7,8,8a,9,11,13,13a,13b,14,15b-octadecahydro-1H-chryseno[1,2-f]indazol-4-a-yl)-4-(4-methylpiperazin-1-yl)-1H-pyrazol-5-ol], in the experiment on P. aeruginosa biofilms, the “P. aeruginosa: concentration that reduces the area of the spreading biofilm by greater than or equal to 85%” value was 1 µg/mL. Also, the “E. coli: concentration that reduces the area of the spreading biofilm by greater than or equal to 85%” value with E. coli biofilms was 1 µg/mL.

For the compound `CC1(C)CC[C@]2(C(=O)O)CC[C@]3(C)C(=C(c4cn[nH]c4)CC4[C@@]5(C)Cc6c(n[nH]c6N)C(C)(C)[C@@H]5CC[C@]43C)[C@@H]2C1` (stereo partly drawn) [Example 27, (4aS,6aS,6bR,8aR,13aR,15bS)-12-Amino-2,2,6a,6b,9,9,13a-heptamethyl-15-(1H-pyrazol-4-yl)-2,3,4,4a,5,6,6a,6b,7,8,8a,9,11,13,13a,13b,14,15b-octadecahydro-1H-chryseno[1,2-f]indazole-4-a-carboxylic acid], the “P. aeruginosa: concentration that reduces the area of the spreading biofilm by greater than or equal to 85%” value in the experiment with P. aeruginosa biofilms worked out at 1 µg/mL. Besides, in the experiment with E. coli biofilms, the “E. coli: concentration that reduces the area of the spreading biofilm by greater than or equal to 85%” value was more than 2 µg/mL.

`CCC1=C2[C@@H]3CC(C)(C)CC[C@]3(C(=O)O)CC[C@@]2(C)[C@]2(C)CC[C@H]3C(C)(C)c4n[nH]c(N)c4C[C@]3(C)C2C1` (stereo partly drawn) [Example 14, (4aS,6aS,6bR,8aR,13aR,15bS)-12-Amino-15-ethyl-2,2,6a,6b,9,9,13a-heptamethyl-2,3,4,4a,5,6,6a,6b,7,8,8a,9,11,13,13a,13b,14,15b-octadecahydro-1H-chryseno[1,2-f]indazole-4-a-carboxylic acid]: the IC85 came to 0.5 µg/mL (≈ 0.958 µM) in the experiment on P. aeruginosa biofilms and 2 µg/mL (≈ 3.83 µM) in the experiment on E. coli biofilms.

Regarding `CC1(C)CC[C@]2(C(=O)O)CC[C@]3(C)C(=C(c4ccco4)CC4[C@@]5(C)Cc6c(n[nH]c6N)C(C)(C)[C@@H]5CC[C@]43C)[C@@H]2C1` (stereo partly drawn) [Example 7, (4aS,6aS,6bR,13aR)-12-Amino-15-(furan-2-yl)-2,2,6a,6b,9,9,13a-heptamethyl-2,3,4,4a,5,6,6a,6b,7,8,8a,9,11,13,13a,13b,14,15b-octadecahydro-1H-chryseno[1,2-f]indazole-4-a-carboxylic acid], the IC85 in the experiment with P. aeruginosa biofilms turned out to be 0.25 µg/mL (≈ 0.447 µM); in the experiment on E. coli biofilms, 1 µg/mL (≈ 1.79 µM).

For the compound `CC1(C)CC[C@]2(C(=O)O)CC[C@]3(C)C(=C(c4ccc(N5CCC(N)C5)nc4)CC4[C@@]5(C)Cc6c(n[nH]c6N)C(C)(C)C5CC[C@]43C)C2C1` (stereo partly drawn) [Example 58, (4a-8,6a8,6bR,13aR)-12-Amino-15-(6-(3-aminopyrrolidin-1-yl)pyridin-3-yl)-2,2,6a,6b,9,9,13a-heptamethyl-2,3,4,4a,5,6,6a,6b,7,8,8a,9,11,13,13a,13b,14,15b-octadecahydro-1H-chryseno[1,2-f]indazole-4-a-carboxylic acid], the “P. aeruginosa: concentration that reduces the area of the spreading biofilm by greater than or equal to 85%” value in the experiment with P. aeruginosa biofilms was 1 µg/mL. In the experiment with E. coli biofilms, the “E. coli: concentration that reduces the area of the spreading biofilm by greater than or equal to 85%” value was 2 µg/mL.

`CNc1ccc(C2=C3[C@@H]4CC(C)(C)CC[C@]4(C(=O)O)CC[C@@]3(C)[C@]3(C)CC[C@H]4C(C)(C)c5n[nH]c(N)c5C[C@]4(C)C3C2)cn1` (stereo partly drawn) [Example 43, (4aS,6aS,6bR,8aR,13aR,15bS)-12-Amino-2,2,6a,6b,9,9,13a-heptamethyl-15-(6-(methylamino)pyridin-3-yl)-2,3,4,4a,5,6,6a,6b,7,8,8a,9,11,13,13a,13b,14,15b-octadecahydro-1H-chryseno[1,2-f]indazole-4-a-carboxylic acid]: in the experiment with P. aeruginosa biofilms, the “P. aeruginosa: concentration that reduces the area of the spreading biofilm by greater than or equal to 85%” value is 1 µg/mL. Moreover, the “E. coli: concentration that reduces the area of the spreading biofilm by greater than or equal to 85%” value in the experiment with E. coli biofilms turned out to be 1 µg/mL.

These data come from US8324264B1, “Inhibitors of bacterial biofilms and related methods” (Sequoia Sciences, Inc., priority 2011, dated 2012).
